Experimental data from patent US6004950A, “2-aminopyridines as inhibitors of cyclooxygenase-2” (Merck Frosst Canada, Inc., priority 1998, dated 1999).
Like-named read-outs stand apart in the source and are kept apart here.

Tests used:
COX-2 [1] = target: T1, COX-2 (Homo sapiens, UniProt P35354); test: Human whole blood assay, COX-2 (LPS-induced PGE2 production); type: cell-based; conditions: human whole blood, LPS-induced PGE2, 24 h; read-out: COX-2 (IC50 mM) HWB
T1 construct: incubation of human whole blood with LPS, which induces COX-2; endogenous in cells; host or cells: heparinized fresh whole blood of human volunteers, incubated with LPS for 24 h
T1 sequence (P35354 18-604): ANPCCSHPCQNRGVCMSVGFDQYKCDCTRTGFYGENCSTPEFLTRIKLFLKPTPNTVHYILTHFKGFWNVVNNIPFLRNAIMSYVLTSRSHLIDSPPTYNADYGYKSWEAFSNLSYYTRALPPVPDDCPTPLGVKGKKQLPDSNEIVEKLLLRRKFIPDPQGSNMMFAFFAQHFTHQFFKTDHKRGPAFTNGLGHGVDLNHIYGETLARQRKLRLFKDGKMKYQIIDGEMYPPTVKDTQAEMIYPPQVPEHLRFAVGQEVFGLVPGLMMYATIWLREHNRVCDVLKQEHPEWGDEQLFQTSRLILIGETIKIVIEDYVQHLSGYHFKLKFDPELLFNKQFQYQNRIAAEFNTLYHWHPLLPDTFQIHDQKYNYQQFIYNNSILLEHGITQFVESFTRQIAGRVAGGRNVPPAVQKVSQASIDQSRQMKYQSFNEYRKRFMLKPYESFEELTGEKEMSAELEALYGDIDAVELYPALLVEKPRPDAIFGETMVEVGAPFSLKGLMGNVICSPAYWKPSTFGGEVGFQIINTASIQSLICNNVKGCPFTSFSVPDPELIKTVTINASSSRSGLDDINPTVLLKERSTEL
Excerpt: As well, platelets in whole blood contain a large amount of the COX-1 enzyme. Immediately following blood clotting, platelets are activated through a thrombin-mediated mechanism. This reaction results in the production of thromboxane B2 (TxB2) via activation of COX-1. Thus, the effect of test compounds on TxB2 levels following blood clotting can be examined and used as an index for COX-1 activity. Therefore, the degree of selectivity by the test compound can be determined by measuring the levels of PGE2 after LPS induction (COX-2) and TxB2 following blood clotting (COX-1) in the same assay.
A. COX-2 (LPS-induced PGE2 production)
Fresh blood is collected in heparinized tubes by venipuncture from both male and female volunteers. The subjects have no apparent inflammatory conditions and have not taken any NSAIDs for at least 7 days prior to blood collection. Plasma is immediately obtained from a 2 mL blood aliquot to use as blank (basal levels of PGE2).

COX-2 [2] = target: T1, COX-2; test: Whole cell assay for COX-2 using CHO transfected cell line CHO[hCOX-2], inhibition of PGE2 synthesis; type: cell-based; conditions: CHO[hCOX-2] cells, 10 μM AA, PGE2; read-out: COX-2 (IC50 mM) CHO
Description: Whole cell assays for COX-2 and COX-1 using CHO transfected cell lines
Chinese hamster ovary (CHO) cell lines which have been stably transfected with an eukaryotic expression vector pCDNAIII containing either the human COX-1 or COX-2 cDNA's are used for the assay. These cell lines are referred to as CHO [hCOX-1] and CHO [hCOX-2], respectively. For cyclooxygenase assays, CHO[hCOX-1] cells from suspension cultures and CHO[hCOX-2] cells prepared by trypsinization of adherent cultures are harvested by centrifugation (300×g, 10 min) and washed once in HBSS containing 15 mM HEPES, pH 7.4, and resuspended in HBSS, 15 mM HEPES, pH 7.4, at a cell concentration of 1.5×10^6 cells/ml. Drugs to be tested are dissolved in DMSO to 66.7-fold the highest test drug concentration. […] Cells (0.3×10^6 cells in 200 μl) are preincubated with 3 μl of the test drug or DMSO vehicle for 15 min at 37° C. Working solutions of peroxide-free AA (5.5 μM and 110 μM AA for the CHO [hCOX-1] and CHO [COX-2] assays, respectively) are prepared by a 10-fold dilution of a concentrated AA solution in ethanol into HBSS containing 15 mM HEPES, pH 7.4. Cells are then challenged in the presence or absence of drug with the AA/HBSS solution to yield a final concentration of 0.5 μM AA in the CHO[hCOX-1] assay and a final concentration of 10 μM AA in the CHO[hCOX-2] assay. The reaction is terminated by the addition of 10 μl 1 N HCl followed by neutralization with 20 μl of 0.5 N NaOH. The samples are centrifuged at 300×g at 4° C. for 10 min, and an aliquot of the clarified supernatant is appropriately diluted for the determination of PGE2 levels using an enzyme-linked immunoassay for PGE2 (Correlate PGE2 enzyme immunoassay kit, Assay Designs, Inc.). Cyclooxygenase activity in the absence of test compounds is determined as the difference in PGE2 levels of cells challenged with arachidonic acid versus the PGE2 levels in cells mock-challenged with ethanol vehicle. Inhibition of PGE2 synthesis by test compounds is calculated as a percentage of the activity in the presence of drug versus the activity in the positive control samples.

COX-1 = COX-1 (Homo sapiens, UniProt P23219); test: Assay of COX-1 activity from U937 cell microsomes; type: biochemical; design: Assay of COX-1 Activity from U937 cell microsomes; endogenous in cells; host or cells: U937 cells, 100,000×g microsomal pellet
Description: Assay of COX-1 Activity from U937 cell microsomes
U 937 cells are pelleted by centrifugation at 500×g for 5 min and washed once with phosphate-buffered saline and repelleted. Cells are resuspended in homogenization buffer consisting of 0.1 M Tris-HCl, pH 7.4, 10 mM EDTA, 2 μg/ml leupeptin, 2 μg/ml soybean trypsin inhibitor, 2 μg/ml aprotinin and 1 mM phenyl methyl sulfonyl fluoride. The cell suspension is sonicated 4 times for 10 sec and is centrifuged at 10,000×g for 10 min at 4° C. The supernatant is centrifuged at 100,000×g for 1 hr at 4° C. The 100,000×g microsomal pellet is resuspended in 0.1 M Tris-HCl, pH 7.4, 10 mM EDTA to approximately 7 mg protein/ml and stored at -80° C.
Microsomal preparations are thawed immediately prior to use, subjected to a brief sonication, and then diluted to a protein concentration of 125 μg/ml in 0.1 M Tris-HCl buffer, pH 7.4 containing 10 mM EDTA, 0.5 mM phenol, 1 mM reduced glutathione and 1 μM hematin. Assays are performed in duplicate in a final volume of 250 μl. Initially, 5 μl of DMSO vehicle or drug in DMSO are added to 20 μl of 0.1 M Tris-HCl buffer, pH 7.4 containing 10 mM EDTA in wells of a 96-deepwell polypropylene titre plate. 200 μl of the microsomal preparation are then added and pre-incubated for 15 min at room temperature before addition of 25 μl of […] arachidonic acid in […] Tris-HCl and 10 mM EDTA, pH 7.4. Samples are incubated for 40 min at room temperature and the reaction is stopped by the addition of 25 μl of 1 N HCl. Samples are neutralized with 25 μl of 1 N NaOH prior to quantitation of PGE2 content by radioimmunoassay (Dupont-NEN or Amersham assay kits). Cyclooxygenase activity is defined as the difference between PGE2 levels in samples incubated in the presence of arachidonic acid and ethanol vehicle.
In the assay, inhibition is determined by measuring the amount of prostaglandin E2 (PGE2) synthesized in the presence of arachidonic acid, cyclooxygenase-1 or cyclooxygenase-2 and a putative inhibitor.

[3] = U937 cell microsomes, PGE2, read-out: COX-1 (IC50 mM) U-937

Chain of COX-1 (P23219 24-599): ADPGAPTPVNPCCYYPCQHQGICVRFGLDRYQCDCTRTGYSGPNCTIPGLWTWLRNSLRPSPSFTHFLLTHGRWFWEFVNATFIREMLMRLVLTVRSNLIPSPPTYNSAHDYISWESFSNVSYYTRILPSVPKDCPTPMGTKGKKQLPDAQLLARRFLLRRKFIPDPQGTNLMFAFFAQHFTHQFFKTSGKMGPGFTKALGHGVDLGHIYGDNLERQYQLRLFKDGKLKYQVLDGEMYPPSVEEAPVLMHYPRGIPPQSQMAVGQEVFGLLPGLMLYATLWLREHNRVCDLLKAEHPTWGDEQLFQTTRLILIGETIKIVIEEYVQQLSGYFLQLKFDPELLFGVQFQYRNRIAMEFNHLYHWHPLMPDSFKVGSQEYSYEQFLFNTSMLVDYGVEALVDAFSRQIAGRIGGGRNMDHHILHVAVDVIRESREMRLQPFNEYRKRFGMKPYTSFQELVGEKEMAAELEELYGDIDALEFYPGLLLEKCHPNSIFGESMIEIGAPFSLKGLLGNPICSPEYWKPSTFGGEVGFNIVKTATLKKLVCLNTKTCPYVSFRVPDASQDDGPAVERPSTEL

With `CC(=O)OC[C@@H]1CCCN1c1ncc(C(F)(F)F)cc1-c1ccc(S(C)(=O)=O)cc1` [Example 11, 3-(4-Methylsulfonyl)phenyl-2-((2S)-2-acetoxymethyl)pyrrolidin-1-yl-5-trifluoromethylpyridine] the IC50 (COX-2 [1]) was < 0.0004 mM, the IC50 (COX-2 [2]) was 0.07 µM and the IC50 (COX-1; [3]) was > 0.01 mM.
In the case of `COC[C@@H]1CCCN1c1ncc(Cl)cc1-c1ccc(S(C)(=O)=O)cc1` [Example 12, 5-Chloro-3-(4-methylsulfonyl)phenyl-2-((2S)-2-methoxymethyl)pyrrolidin-1-ylpyridine], the IC50 (COX-1; [3]) is reported as 0.003 to 0.01 mM.
Compound `CS(=O)(=O)c1ccc(-c2cc(C(F)(F)F)cnc2N2CCCCC2CO)cc1` (centres unmarked) [Example 13, 3-(4-Methylsulfonyl)phenyl-2-(2-hydroxymethyl)piperidin-1-yl-5-trifluoromethylpyridine] has an IC50 (COX-2 [1]) of 0.0027 mM, an IC50 (COX-2 [2]) of 0.1 µM and an IC50 (COX-1; [3]) of 0.01 mM.
With `CS(=O)(=O)c1ccc(-c2cc(Cl)cnc2N2CCCC(CO)C2)cc1` (centres unmarked) [Example 16, 5-Chloro-3-(4-methylsulfonyl)phenyl-2-(3-hydroxymethyl)piperidin-1-ylpyridine] the IC50 (COX-1; [3]) was > 0.01 mM.
For `CC1(CO)CCCN(c2ncc(C(F)(F)F)cc2-c2ccc(S(C)(=O)=O)cc2)C1` (centres unmarked) [Example 17, 3-(4-Methylsulfonyl)phenyl-2-(3-hydroxymethyl-3-methyl)piperidin-1-yl-5-trifluoromethylpyridine], the IC50 (COX-2 [1]) was 0.0053 mM, the IC50 (COX-2 [2]) was 0.4 µM and the IC50 (COX-1; [3]) was > 0.01 mM.
In the case of `CS(=O)(=O)c1ccc(-c2cc(C(F)(F)F)cnc2N2CCCCC(CO)C2)cc1` (centres unmarked) [Example 18, 3-(4-Methylsulfonyl)phenyl-2-(3-hydroxymethyl)homopiperidin-1-yl-5-trifluoromethylpyridine], the IC50 (COX-2 [1]) is reported as 0.0234 mM, the IC50 (COX-2 [2]) is reported as 0.08 µM and the IC50 (COX-1; [3]) is reported as > 0.01 mM.
With `CS(=O)(=O)c1ccc(-c2cc(C(F)(F)F)cnc2N2CCCCC2CCO)cc1` (centres unmarked) [Example 19, 3-(4-Methylsulfonyl)phenyl-2-(2-(2-hydroxyethyl))piperidin-1-yl-5-trifluoromethylpyridine] the IC50 (COX-2 [1]) was 0.0032 mM, the IC50 (COX-2 [2]) was 0.92 µM and the IC50 (COX-1; [3]) was > 0.01 mM.
`CS(=O)(=O)c1ccc(-c2cc(C(F)(F)F)cnc2N2CCC(=O)CC2)cc1` [Example 20, 3-(4-Methylsulfonyl)phenyl-2-(4-oxo)piperidin-1-yl-5-trifluoromethylpyridine] was tested, and the IC50 (COX-2 [1]) was 0.0104 mM, the IC50 (COX-2 [2]) was 0.09 µM and the IC50 (COX-1; [3]) was > 0.01 mM.
With `CS(=O)(=O)c1ccc(-c2cc(C(F)(F)F)cnc2N2CCCC(=O)C2)cc1` [Example 21, 3-(4-Methylsulfonyl)phenyl-2-(3-oxo)piperidin-1-yl-5-trifluoromethylpyridine] the IC50 (COX-2 [1]) was 0.0053 mM, the IC50 (COX-2 [2]) was 0.11 µM and the IC50 (COX-1; [3]) was > 0.01 mM.
For `CS(=O)(=O)c1ccc(-c2cc(C(F)(F)F)cnc2N2CCC(O)CC2)cc1` [Example 22, 3-(4-Methylsulfonyl)phenyl-2-(4-hydroxy)piperidin-1-yl-5-trifluoromethylpyridine], the IC50 (COX-2 [1]) was 0.0108 mM, the IC50 (COX-2 [2]) was 0.03 µM and the IC50 (COX-1; [3]) was > 0.01 mM.
For `CS(=O)(=O)c1ccc(-c2cc(C(F)(F)F)cnc2N2CCCC(O)C2)cc1` (centres unmarked) [Example 23, 3-(4-Methylsulfonyl)phenyl-2-(3-hydroxy)piperidin-1-yl-5-trifluoromethylpyridine], the IC50 (COX-2 [1]) was 0.0075 mM, the IC50 (COX-2 [2]) was 0.03 µM and the IC50 (COX-1) was > 0.01 mM.
